The values below are quoted from earlier work in patent US20060165637A1, “Topical agent containing phytanic acid or a derivative thereof” (priority 2003, published 2006).

Structures are written as SMILES.

Series [1] concerns RXR. Particulars: relative to retinoic acid.
The conditions of series [2]: applied topically to the skin.

Turning to `CC(C)CCCC(C)CCCC(C)CCCC(C)CC(=O)O` (centres unmarked) [Phytanic acid, 3,7,11,15-tetramethylhexadecanoic acid], the “RXR binding affinity, times weaker than that of retinoic acid” value in series [1] was 200 times.

Turning to `C/C(=C\CO)CCC[C@H](C)CCC[C@H](C)CCCC(C)C` [phytol], the “conversion into phytanic acid” value in series [2] was “does not occur”.
